Results from patent US20220096452A1, “LOCAL ANESTHETIC FOR THE TREATMENT OF NEUROLOGICAL SYMPTOMS RESULTING FROM BRAIN DYSFUNCTIONS” (ICM (INSTITUT DU CERVEAU ET DE LA MOELLE ÉPINIÈRE), priority 2019, published 2022).
“Also recorded” adds a separate entry of the source.

Tests used:
Type in all cases: in vivo, human
[1] = tested on: patient who suffered from almost complete cortical blindness following a bilateral occipital stroke; test: Clinical assessment of vision (visual field by confrontation), on vs off periods
From the text: In 2010, a patient underwent surgery for the removal of a cervical herniated intervertebral disc (C6-C7). Immediately following surgery, they suffered from a dissection of their right vertebral artery, resulting in bilateral occipital and right cerebellar infarcts. They presented initially with almost complete cortical blindness, left hemiparesis, gait instability, mild swallowing difficulties. Visual perception improved in a small peripheral part of their right visual hemifield, while all other symptoms recovered fully.
The inverse phenomenon took place, over about 1 minute, during the transition from on to off periods.

[2] = tested on: patient who suffered from almost complete cortical blindness following a bilateral occipital stroke; test: Visual field assessment, full-threshold Humphrey visual field (HVF), 24-2 SITA
From the text: Those clinical observations were supported and refined by assessment of the visual field with the full-threshold Humphrey visual field (HVF), 24-2 Swedish Interactive Thresholding Algorithm (SITA) (Carl Zeiss Meditec Inc., Dublin, Calif.).
The same pattern prevailed using Goldmann perimetry.

[3] = tested on: patient who suffered from almost complete cortical blindness following a bilateral occipital stroke; test: Neurovisual evaluation (BORB and other tests) during on periods
From the text: As shown in the table below, during on periods, all tests involving visual perception were normal, except for a mild deficit in the Facial recognition test, with no discernible impairment of face perception in everyday life.

[4] = tested on: patient who suffered from almost complete cortical blindness following a bilateral occipital stroke; test: General neurological examination; details: either off or on Mepivacaine
From the text: Apart from the patient's visual status, […] general neurological examination was normal, either off or on Mepivacaine. They had no sensory or motor impairment, no abnormalities of the cranial nerves, no cognitive deficit (MMSE=29/30, FAB 16/18, Five Words Test 10/10). There was no psychiatric symptoms, except for a depressive mood whenever the patient was off medication and virtually blind.

[5] = tested on: patient who suffered from almost complete cortical blindness following a bilateral occipital stroke; test: Resting state functional MRI connectivity, on vs off periods
Protocol: Resting state fMRI is a method of functional magnetic resonance imaging (fMRI) that is used in brain mapping to evaluate regional interactions that occur in a resting or task-negative state, when an explicit task is not being performed. We gathered MRI images while the patient was at rest with their eyes closed, during off and on periods. Those data were analyzed using the CONN toolbox (https://web.conn-toolbox.org/home). We report here two results providing pathophysiological correlates of vision recovery in the patient's right visual hemifield under Mepivacaine.
The left early visual cortex (or calcarine cortex) is the entry gate into the brain of visual information from the right hemifield. […] We predicted that whatever its underlying mechanism, functional recovery implies a restoration of functional communication between the left calcarine cortex and distant cortical areas.
We predicted that the restoration of vision should be accompanied with an overall increase of connectivity between the visual system and the rest of the brain. We computed for each voxel of the brain the average connectivity with the rest of the brain (or “intrinsic connectivity”), and studied the changes of this value between off and on periods.

[6] = tested on: patient who suffered from almost complete cortical blindness following a bilateral occipital stroke; test: 18F-FDG PET-scan brain metabolism, on vs off periods

Cc1cccc(C)c1NC(=O)C1CCCCN1C (stereo not shown) [Mepivacaine, I-methyl-2′,6′-pipecoloxylidide]
vision in the left hemifield (confrontation) ([1]; during on periods): dense hemianopia persisted
vision in the right hemifield (confrontation) ([1]; during on periods): vision returned to normal in the right hemifield
duration of transition from off to on periods (widening of spared vision to whole right hemifield) ([1]; patient description): over a matter of seconds
duration of transition from on to off periods ([1]; patient description): about 1 minute
visual ability of the patient ([1]; pursuant administration, single patient): improvement of visual ability
vision in the left superior quadrant ([2]; on period / under Mepivacaine): recovered in a small paramedial island in the left superior quadrant; also recorded: extends to part of the left superior quadrant
vision in the right hemifield (HVF) ([2]; on period, FIG. 2): vision returned to normal in the whole right hemifield, except for a small superior paracentral island
island of right visual field corresponding to right occipital infarct ([2]; under Mepivacaine): not improved
BORB TEST 1: Copying, score [3]: 9/9
BORB TEST 2: Length Match Task, score [3]: 26/30
BORB TEST 3: Size Match Task, score [3]: 28/30
BORB TEST 4: Orientation Match Task, score [3]: 25/30
BORB TEST 5: Position of Gap Match Task, score [3]: 37/40
BORB TEST 7: Minimal Feature View Test, score [3]: 25/25
BORB TEST 8: Foreshortened View Task, score [3]: 25/25
BORB TEST 9: Drawing from Memory, score [3]: 6/6
BORB TEST 10: Object Decision Task, score [3]: 26/32
BORB TEST 11: Function Match Task, score [3]: 31/32
BORB TEST 12: Associative Match Task, score [3]: 29/30
Benton's Judgment of Line Orientation, score [3]: 14/15
Block design test (WAIS-IV), score [3]: 53/66
Facial recognition test (Benton, 1963), score [3]: 38/54
Facial recognition test, in words [3]: mild deficit
Hooper Test (Richardson and Marattoli, 1996), score [3]: 27/30
Matrix reasoning test (WAIS-IV), score [3]: 22/26
OD 80 picture naming test (Deloche and Hannequin, 1996), score [3]: 80/80
all tests involving visual perception [3]: normal
Block design test (WAIS-IV), NS ([3]; NS): 13
Matrix reasoning test (WAIS-IV), NS ([3]; NS): 14
BORB TEST 2: Length Match Task, z ([3]; z score): 0.56
BORB TEST 3: Size Match Task, z ([3]; z score): 0.29
BORB TEST 4: Orientation Match Task, z ([3]; z score): 0.08
BORB TEST 5: Position of Gap Match Task, z ([3]; z score): 0.48
BORB TEST 7: Minimal Feature View Test, z ([3]; z score): 0.85
BORB TEST 8: Foreshortened View Task, z ([3]; z score): 1.31
BORB TEST 10: Object Decision Task, z ([3]; z score): 0.45
BORB TEST 11: Function Match Task, z ([3]; z score): 0.45
BORB TEST 12: Associative Match Task, z ([3]; z score): 0.63
Hooper Test (Richardson and Marattoli, 1996), z ([3]; z score): 1.30
general neurological examination (apart from visual status) [4]: normal
functional connectivity of right-hemispheric calcarine region (control analysis) [5]: no significant differences between on and off periods
functional connectivity of left calcarine cortex with bilateral frontoparietal regions ([5]; FIG. 4): increase in connectivity
functional connectivity of left calcarine cortex with mesial and lateral regions (default-mode network) ([5]; FIG. 4): decrease in correlation
intrinsic connectivity of bilateral lateral occipital cortex with the rest of the brain ([5]; FIG. 5): increased its average functional connectivity with the rest of the brain
metabolism in the severely lesioned right mesial occipital cortex ([6]; on and off periods): severe and constant hypometabolism
metabolism in the intact left occipital and temporal cortex ([6]; on vs off periods, FIG. 6): significant increase in metabolism
